# Patent US7795229B2, “Serum cholesterol lowering agent or preventative or therapeutic agent for atherosclerosis” (Kotobuki Pharmaceutical Co., Ltd., priority 2003, dated 2010)
row,melting point [°C],SMILES
1,89 to 90,O=C1[C@H](CCCc2ccc(F)cc2)[C@@H](c2ccc(C3O[C@H](CO)[C@@H](O)[C@H](O)[C@H]3O)cc2)N1c1ccc(F)cc1 (some centres unmarked) [Compound 1]
2,110 to 112,O=C1[C@H](CCCc2ccc(F)cc2)[C@@H](c2ccc(C[C@@H]3O[C@H](CO)[C@@H](O)[C@H](O)[C@H]3O)cc2)N1c1ccc(F)cc1 [Compound 2]
3,65 to 67,O=C1[C@H](CCOc2ccc(F)cc2)[C@@H](c2ccc(C[C@@H]3O[C@H](CO)[C@@H](O)[C@H](O)[C@H]3O)cc2)N1c1ccc(F)cc1 [Compound 12]
4,64 to 65,O=C1[C@H](CCOc2ccc(F)cc2)[C@@H](c2ccc(OC[C@@H]3O[C@H](CO)[C@@H](O)[C@H](O)[C@H]3O)cc2)N1c1ccc(F)cc1 [Compound 15]
5,115 to 117,O=C1[C@H](CC[C@H](O)c2ccc(F)cc2)[C@@H](c2ccc(C[C@@H]3O[C@H](CO)[C@@H](O)[C@H](O)[C@H]3O)cc2)N1c1ccc(F)cc1 [Compound 22]
6,104 to 106,O=C1[C@H](CC[C@H](O)c2ccc(F)cc2)[C@@H](c2ccc(C[C@@H]3O[C@H](CO)[C@@H](O)[C@H](O)[C@H]3O)cc2)N1c1ccccc1 [Compound 23]
7,102 to 104,Cc1ccc(N2C(=O)[C@H](CC[C@H](O)c3ccc(F)cc3)[C@H]2c2ccc(C[C@@H]3O[C@H](CO)[C@@H](O)[C@H](O)[C@H]3O)cc2)cc1 [Compound 24]
8,67 to 69,O=C1[C@H](CCCc2ccc(F)cc2)[C@@H](c2ccc(C[C@@H]3O[C@H](CO)[C@@H](O)[C@H](O)[C@H]3O)cc2)N1c1ccc(F)cc1 [Compound 25]
9,78 to 80,O=C(CC[C@H]1C(=O)N(c2ccc(F)cc2)[C@@H]1c1ccc(C[C@@H]2O[C@H](CO)[C@@H](O)[C@H](O)[C@H]2O)cc1)c1ccc(F)cc1 [Compound 26]
10,148 to 150,O=C(O)c1ccc(N2C(=O)[C@H](CC[C@H](O)c3ccc(F)cc3)[C@H]2c2ccc(C[C@@H]3O[C@H](CO)[C@@H](O)[C@H](O)[C@H]3O)cc2)cc1 [Compound 29]
11,82 to 84,O=C(O)[C@H]1O[C@@H](Cc2ccc([C@@H]3[C@@H](CC[C@H](O)c4ccc(F)cc4)C(=O)N3c3ccc(F)cc3)cc2)[C@H](O)[C@@H](O)[C@@H]1O [Compound 33]
12,83 to 85,O=C(CC[C@H]1C(=O)N(c2ccc(F)cc2)[C@@H]1c1ccc([C@@H]2O[C@H](CO)[C@@H](O)[C@H](O)[C@H]2O)cc1)c1ccc(F)cc1 [Compound 34]
13,81 to 83,O=C1[C@H](CC[C@H](O)c2ccc(F)cc2)[C@@H](c2ccc([C@@H]3O[C@H](CO)[C@@H](O)[C@H](O)[C@H]3O)cc2)N1c1ccc(F)cc1 [Compound 35]
14,79 to 81,Cc1ccc(N2C(=O)[C@H](CC[C@H](O)c3ccc(F)cc3)[C@H]2c2ccc([C@@H]3O[C@H](CO)[C@@H](O)[C@H](O)[C@H]3O)cc2)cc1 [Compound 36]
15,200 to 201,O=C1[C@H](CC[C@H](O)c2ccc(F)cc2)[C@@H](c2ccc(F)cc2)N1c1ccc(C[C@@H]2O[C@H](CO)[C@@H](O)[C@H](O)[C@H]2O)cc1 [Compound 38]
16,126 to 128,O=C1[C@H](CC[C@H](O)c2ccc(C[C@@H]3O[C@H](CO)[C@@H](O)[C@H](O)[C@H]3O)cc2)[C@@H](c2ccc(F)cc2)N1c1ccc(F)cc1 [Compound 39]
17,78 to 80,O=C1[C@H](CCCc2ccc(F)cc2)[C@H](c2ccc(C[C@@H]3O[C@H](CO)[C@@H](O)[C@H](O)[C@H]3O)cc2)N1c1ccc(F)cc1 [Compound 40]
18,56 to 58,CCOC(=O)c1ccc(N2C(=O)[C@H](CC[C@H](O)c3ccc(F)cc3)[C@H]2c2ccc(C[C@@H]3O[C@H](CO)[C@@H](O)[C@H](O)[C@H]3O)cc2)cc1 [Compound 42]
19,84 to 86,O=C1[C@H](CC[C@H](O)c2ccc(F)cc2)[C@@H](c2ccc(/C=C/[C@@H]3O[C@H](CO)[C@@H](O)[C@H](O)[C@H]3O)cc2)N1c1ccc(F)cc1 [Compound 45]
20,153 to 155,O=C1[C@H](CC[C@H](O)c2ccc(F)cc2)[C@@H](c2ccc(CC[C@@H]3O[C@H](CO)[C@@H](O)[C@H](O)[C@H]3O)cc2)N1c1ccc(F)cc1 [Compound 46]
21,72 to 74,O=C1[C@H](CC[C@H](O)c2ccc(F)cc2)[C@@H](c2ccc(/C=C/C[C@@H]3O[C@H](CO)[C@@H](O)[C@H](O)[C@H]3O)cc2)N1c1ccc(F)cc1 [Compound 47]
22,81 to 83,O=C1[C@H](CC[C@H](O)c2ccc(F)cc2)[C@@H](c2ccc(CCC[C@@H]3O[C@H](CO)[C@@H](O)[C@H](O)[C@H]3O)cc2)N1c1ccc(F)cc1 [Compound 48]
23,111 to 113,O=C1[C@H](CC[C@H](O)c2ccc([C@H]3O[C@@H](CO)[C@H](O)[C@@H](O)[C@@H]3O)cc2)C(c2ccc(F)cc2)N1c1ccc(F)cc1 (some centres unmarked) [Compound 49]

# The remaining lines, values behind:
row,SMILES,melting point [°C]
1,CC(=O)OC[C@H]1O[C@@H](Cc2ccc([C@@H]3[C@@H](CCCc4ccc(F)cc4)C(=O)N3c3ccc(F)cc3)cc2)[C@H](OC(C)=O)[C@@H](OC(C)=O)[C@@H]1OC(C)=O [Compound 3],56 to 58
2,O=C1[C@H](CCCc2ccc(F)cc2)[C@@H](c2ccc(C[C@@H]3O[C@H](CO)[C@@H](O)[C@H](O)[C@H]3O)cc2)N1c1ccc(Cl)cc1 [Compound 4],76 to 78
3,COc1ccc(N2C(=O)[C@H](CCCc3ccc(F)cc3)[C@H]2c2ccc(C[C@@H]3O[C@H](CO)[C@@H](O)[C@H](O)[C@H]3O)cc2)cc1 [Compound 5],73 to 75
4,COc1ccc(N2C(=O)[C@H](CCCc3ccc(F)cc3)[C@H]2c2ccc(C[C@@H]3O[C@H](COC(C)=O)[C@@H](OC(C)=O)[C@H](OC(C)=O)[C@H]3OC(C)=O)cc2)cc1 [Compound 6],60 to 62
5,Cc1ccc(N2C(=O)[C@H](CCCc3ccc(F)cc3)[C@H]2c2ccc(C[C@@H]3O[C@H](CO)[C@@H](O)[C@H](O)[C@H]3O)cc2)cc1 [Compound 7],80 to 82
6,CC(=O)OC[C@H]1O[C@@H](Cc2ccc([C@@H]3[C@@H](CCCc4ccc(F)cc4)C(=O)N3c3ccc(C)cc3)cc2)[C@H](OC(C)=O)[C@@H](OC(C)=O)[C@@H]1OC(C)=O [Compound 8],56 to 58
7,O=C1[C@H](CCCc2ccc(F)cc2)[C@@H](c2ccc(C[C@@H]3O[C@H](CO)[C@@H](O)[C@H](O)[C@H]3O)cc2)N1c1ccccc1 [Compound 9],84 to 86
8,CC(=O)OC[C@H]1O[C@@H](Cc2ccc([C@@H]3[C@@H](CCCc4ccc(F)cc4)C(=O)N3c3ccccc3)cc2)[C@H](OC(C)=O)[C@@H](OC(C)=O)[C@@H]1OC(C)=O [Compound 10],60 to 61
9,O=C1[C@H](CCCc2ccccc2)[C@@H](c2ccc(C[C@@H]3O[C@H](CO)[C@@H](O)[C@H](O)[C@H]3O)cc2)N1c1ccc(F)cc1 [Compound 11],74 to 75
10,CC(=O)OC[C@H]1O[C@@H](Cc2ccc([C@@H]3[C@@H](CCOc4ccc(F)cc4)C(=O)N3c3ccc(F)cc3)cc2)[C@H](OC(C)=O)[C@@H](OC(C)=O)[C@@H]1OC(C)=O [Compound 13],64 to 66
11,O=C1[C@H](CCCc2ccc(F)cc2)[C@@H](c2ccc(OC[C@@H]3O[C@H](CO)[C@@H](O)[C@H](O)[C@H]3O)cc2)N1c1ccc(F)cc1 [Compound 14],61 to 62
12,O=C1[C@H](CCCc2ccc(F)cc2)[C@@H](c2ccc(OC[C@@H]3O[C@H](CO)[C@@H](O)[C@H](O)[C@H]3O)cc2)N1Cc1ccccc1 [Compound 16],73 to 75
13,O=C(O)[C@H]1O[C@@H](Cc2ccc([C@@H]3[C@@H](CCCc4ccc(F)cc4)C(=O)N3c3ccc(F)cc3)cc2)[C@H](O)[C@@H](O)[C@@H]1O [Compound 17],105 to 106
14,CCOC(=O)C(C)(C)Oc1ccc(N2C(=O)[C@H](CCCc3ccc(F)cc3)[C@H]2c2ccc(C[C@@H]3O[C@H](CO)[C@@H](O)[C@H](O)[C@H]3O)cc2)cc1 [Compound 18],73 to 74
15,CC(C)(Oc1ccc(N2C(=O)[C@H](CCCc3ccc(F)cc3)[C@H]2c2ccc(C[C@@H]3O[C@H](CO)[C@@H](O)[C@H](O)[C@H]3O)cc2)cc1)C(=O)O [Compound 19],170 to 172
16,CCOC(=O)C(C)(C)Oc1ccc(N2C(=O)[C@H](CCCc3ccc(C)cc3)[C@H]2c2ccc(C[C@@H]3O[C@H](CO)[C@@H](O)[C@H](O)[C@H]3O)cc2)cc1 [Compound 20],76 to 78
17,Cc1ccc(CCC[C@H]2C(=O)N(c3ccc(OC(C)(C)C(=O)O)cc3)[C@@H]2c2ccc(C[C@@H]3O[C@H](CO)[C@@H](O)[C@H](O)[C@H]3O)cc2)cc1 [Compound 21],161 to 162
18,O=C(CC[C@H]1C(=O)N(c2ccccc2)[C@@H]1c1ccc(C[C@@H]2O[C@H](CO)[C@@H](O)[C@H](O)[C@H]2O)cc1)c1ccc(F)cc1 [Compound 27],104 to 106
19,Cc1ccc(N2C(=O)[C@H](CCC(=O)c3ccc(F)cc3)[C@H]2c2ccc(C[C@@H]3O[C@H](CO)[C@@H](O)[C@H](O)[C@H]3O)cc2)cc1 [Compound 28],86 to 88
20,O=C(O)c1ccc(N2C(=O)[C@H](CCC(=O)c3ccc(F)cc3)[C@H]2c2ccc(C[C@@H]3O[C@H](CO)[C@@H](O)[C@H](O)[C@H]3O)cc2)cc1 [Compound 30],102 to 104
21,O=C(O)c1ccc(N2C(=O)[C@H](CCCc3ccc(F)cc3)[C@H]2c2ccc(C[C@@H]3O[C@H](CO)[C@@H](O)[C@H](O)[C@H]3O)cc2)cc1 [Compound 31],97 to 99
22,O=C1[C@H](CC[C@H](O)c2ccccc2)[C@@H](c2ccc(C[C@@H]3O[C@H](CO)[C@@H](O)[C@H](O)[C@H]3O)cc2)N1c1ccccc1 [Compound 41],110 to 112
23,Cc1ccc(N2C(=O)[C@H](CCOc3ccc(F)cc3)[C@H]2c2ccc(C[C@@H]3O[C@H](CO)[C@@H](O)[C@H](O)[C@H]3O)cc2)cc1 [Compound 43],96 to 98
24,O=C1[C@H](CCCc2ccccc2)[C@@H](c2ccc(C[C@@H]3O[C@H](CO)[C@@H](O)[C@H](O)[C@H]3O)cc2)N1c1ccccc1 [Compound 44],84 to 86
